# From patent US11414398B2, “Selective organic cation transporters inhibitors for the treatment of depressive disorders” (priority 2017, dated 2022)
# How the values were obtained:
# [1] = test system: corticosterone-induced depression model; experiment: Sucrose preference test, corticosterone-induced depression; type: in vivo, mice; details: i.p. daily: I-1 0.1 mg/kg/day, fluoxetine 15 mg/kg/day or both
# Experimental: Corticosterone-induced depression. […] The experimental scheme is represented on FIG. 1A. Sucrose preference test. Singled-house mice were first habituated for 48 h to drink water from two bottles.
# [2] = test system: corticosterone-induced depression model; experiment: Open-field test, corticosterone-induced depression; type: in vivo, mice; details: compared to corticosterone; I-1 0.1 mg/kg/day, fluoxetine 15 mg/kg/day or both, i.p.
# Experimental: (§1) Corticosterone-induced depression. To induce a chronic depression-like state, individually housed mice were administered corticosterone ([…]; Sigma-Aldrich) dissolved in 0.45% (wt/vol) hydroxypropyl-b-cyclodextrin (Sigma-Aldrich) as in (Bacq et al., Mol. Psychiatry, 2012, 17, 926-939). […] The mice were tested successively for coat sate, sucrose consumption, elevated O-maze, object location test and social interaction, before antidepressant treatment, and after 10 days and 3 weeks of treatment. The experimental scheme is represented on FIG. 1A.
# Open-field test. The open field consisted of a white Plexiglas field (100×100×30 cm) with the center brightly illuminated (500 lux). General locomotor activity in the center and periphery of the open field were scored for 9 min. The time and number of entries in the center zone (60×60 cm) were evaluated as an index of anxiety-related response (FIG. 2B).
# [3] = test system: corticosterone-induced depression model; experiment: Social interaction test, corticosterone-induced depression; type: in vivo, mice; details: compared to corticosterone
# Experimental: (§2) Corticosterone-induced depression. […] The experimental scheme is represented on FIG. 1A. Social interaction test. The social interaction test was performed in a white open-field (42×42 cm) containing an empty wire mesh cage (10×6.5 cm) located at an extremity of the field in a low luminosity environment (25 lux). Each test mouse was allowed to explore the openfield for two consecutive sessions of 2.5 min. During the second session, an unfamiliar mouse was introduced into the cage. Between the two sessions, the test mouse was placed back into its home cage for approximately one minute. The time spent by the test mouse in the interaction zone, defined as an 8-cm-wide region surrounding the mesh cage, was measured in both sessions by video tracking (Viewpoint, Lyon, France) (FIGS. 1G and 1I).
# [4] = Effect on weight, corticosterone-induced depression; type: in vivo, mice; details: weight measured daily; I-1 0.1 mg/kg/day, fluoxetine 15 mg/kg/day or both, i.p.
# Experimental: Corticosterone-induced depression. […] The experimental scheme is represented on FIG. 1A. Effect on weight. The weight of tested mice was measured daily in the morning (FIG. 2D).
# social defeat model = experiment: Social defeat model, social interaction test; type: in vivo, mice; details: after 3 weeks of treatment; fluoxetine 17 mg/kg, compound (I-1) 0.1 mg/kg as printed
# Experimental: as §2, with “Social defeat model. For social defeat, 8-week-old C57Bl/6J mice were submitted to social defeat stress for 10 consecutive days as described (Berton et al., Science, 2006, 311(5762), 864-8).” for “Corticosterone-induced depression.”, “1H.” for “1A.”
# [5] = test system: corticosterone-induced depression model; experiment: Elevated O-maze test, corticosterone-induced depression; type: in vivo, mice; details: after 21 days; i.p. daily: I-1 0.1 mg/kg/day, fluoxetine 15 mg/kg/day or both
# Experimental: Corticosterone-induced depression. […] The experimental scheme is represented on FIG. 1A. Elevated O-maze test. The elevated O-maze consisted of an annular runway positioned 40 cm above the floor and divided into two opposing 90° closed sectors and two 90° open sectors. The mice were individually placed in the closed sector and their behavior recorded over a 5-min period. The time spent in each sector and the number of sector entries (a sector entry was defined as all four of the paws being placed in a sector) were determined by video tracking (Viewpoint, Lyon, France) (FIGS. 1D and 1E).
# [6] = test system: corticosterone-induced depression model; experiment: Coat state, corticosterone-induced depression; type: in vivo, mice; details: both time points; i.p. daily: I-1 0.1 mg/kg/day, fluoxetine 15 mg/kg/day or both
# Experimental: Corticosterone-induced depression. […] The experimental scheme is represented on FIG. 1A. Coat state. The coat state of each animal was assessed weekly as a measure of motivation toward self-care. It was evaluated as the sum of the score of different parts of the body, ranging between 0 for a well-groomed coat and 1 for an unkempt coat for head, neck, dorsal/ventral coat, tail and forepaws/hindpaws (FIG. 1B).
# [7] = test system: autophagy and proteasome pathways in the brain; experiment: Toxicity: cell death pathways in the brain, Western blots; details: quantitative Western blot, prefrontal cortex and hippocampus, corticosterone model
# Experimental: as §1
# Cell death pathways in the brain—Western blots. […] Samples were homogenized by sonication in 2 vol of ice-cold phosphate-buffered saline containing 1% Triton X-100, protease inhibitors (Complete Protease Inhibitor Cocktail, Roche Diagnostics, Basel, Switzerland) and phosphatase inhibitors (Phosphatase Inhibitor Cocktail 3; Sigma-Aldrich). Protein concentrations were determined by Bradford's method. Proteins samples (15 μg) suspended in NuPage LDS sample buffer (Invitrogen, Carlsbad, Calif., USA) were separated by Bis-Tris sodium dodecyl sulfate polyacrylamide gel electrophoresis (10% gels) and transferred onto nitrocellulose membranes (Invitrogen). Transfer efficacy was controlled by Ponceau S staining. Unspecific binding sites were blocked in Tris-buffered saline containing 0.1% Tween-20 and 5% nonfat milk and membranes were immunoprobed with antibodies against β-actin ( 1/2500) and β-catenin ( 1/300) from Sigma-Aldrich or LC3B ( 1/5000) from Abcam. Membranes were incubated with infrared-labeled secondary antibodies (IRDye 700DX and IRDye 800CW; 1/5000; Rockland, Gilbertsvillle, Pa., USA). Immunoblotting was quantified with the Odyssey Infrared Imaging System and Application Software version 3.0 (LI-COR Biosciences, Lincoln, Nebr., USA).
# [8] = blood after 3 weeks of treatment, corticosterone model; means ± SEM (n = 6)
# Experimental: as §1
# Blood parameter evaluation. Blood was collected in lithium heparin after the 3 weeks of treatment. Hemograms were performed with a Siemens ADVIAZ 120 apparatus. For biochemistry, blood was centrifuged at 2000 g for 10 min at +4° C. and supernatant was analyzed with a COBAS 6000 (Roche) apparatus.
# α1-adrenoreceptors = details: cited from earlier work
# [9] = after injection in rabbits; cited from earlier work
# α2-adrenoreceptors = details: cited from earlier work
# OCT3 = biological target: T1, OCT3 (Homo sapiens, UniProt O75751); details: for OCT3; cited from earlier work
# T1 sequence (O75751 1-556): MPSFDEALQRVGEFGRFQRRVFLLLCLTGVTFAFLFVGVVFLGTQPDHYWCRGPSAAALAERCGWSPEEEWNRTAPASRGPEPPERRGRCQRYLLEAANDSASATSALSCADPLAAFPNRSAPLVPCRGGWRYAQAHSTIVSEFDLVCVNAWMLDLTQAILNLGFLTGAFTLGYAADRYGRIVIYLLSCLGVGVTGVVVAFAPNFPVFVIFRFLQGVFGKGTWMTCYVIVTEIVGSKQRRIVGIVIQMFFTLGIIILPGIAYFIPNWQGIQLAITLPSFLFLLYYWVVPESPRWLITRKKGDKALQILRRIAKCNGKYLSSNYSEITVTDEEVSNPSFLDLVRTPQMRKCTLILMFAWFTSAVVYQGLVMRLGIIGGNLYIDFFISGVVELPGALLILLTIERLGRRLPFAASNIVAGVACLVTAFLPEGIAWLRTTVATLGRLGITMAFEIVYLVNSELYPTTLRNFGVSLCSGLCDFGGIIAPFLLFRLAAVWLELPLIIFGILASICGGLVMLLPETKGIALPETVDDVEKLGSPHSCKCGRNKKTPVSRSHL
smiles,measurement,setting,value
"CNCCC(Oc1ccc(C(F)(F)F)cc1)c1ccccc1 (stereo not shown) [fluoxetine, reference compound]",sucrose preference,[1]; 11 days of treatment,"but not fluoxetine alone, significantly increased sucrose preference at 11 days"
same,sucrose preference,[1]; 21 days of treatment,significantly increased sucrose preference at 21 days
same,locomotor activity at the periphery of the open field,[2],significant effect
same,interaction time in social interaction test,[3]; 11 days of treatment,significant effects on interaction time
same,interaction time in social interaction test,[3]; 21 days of treatment,significant effects on interaction time
same,effect on weight,[4],no significant effect
same,reversal of social aversion (time in interaction zone with target),social defeat model,reversed only by fluoxetine
same,latency to enter the open zone of the elevated O-maze,[5],decreased the latency to enter this zone
same,time in the open zone of the elevated O-maze,[5],increased the time in the open zone
same,coat state,[6],improved coat state at both time points
same,LC3II/LC3I ratios,[7],comparable LC3II/LC3I ratios
same,β-catenin levels,[7],comparable
same,ALP,[8],47.4 ± 6.2 U/L
same,ALT,[8],75.1 ± 12.4 U/L
same,AST,[8],584.2 ± 87.6 U/L
same,Creatinine,[8],0.5 ± 0.04 mg/dL
same,Hematies,[8],8.5 ± 0.3 T/L
same,Leucocytes,[8],2.99 ± 0.08 g/L
same,Platelets,[8],357 ± 57.2
same,Total bilirubin,[8],0.12 ± 0.01 mg/dL
same,Urea,[8],64.2 ± 4.1 mg/dL
"CC(C)N1/C(=C\c2cc[n+](C(C)C)c3ccccc23)C=Cc2ccccc21 [Compound D24, disprocynium 24]",inhibition of α1-adrenoreceptors,α1-adrenoreceptors,inhibits
same,hypotensive effects (blood pressure),[9],decreasing blood pressure markedly
same,inhibition of α2-adrenoreceptors,α2-adrenoreceptors,inhibits
same,Ki,OCT3,0.014 µM
